Source: paper PMC9002265, “A New Series of Strigolactone Analogs Derived From Cinnamic Acids as Germination Inducers for Root Parasitic Plants” (Frontiers in Plant Science, 2022)

Key:
[1] = molecular target: T1, ShHTL6 (Striga hermonthica, UniProt A0A0M4AUV4); assay: YLG assay (inhibition of YLG hydrolysis) with recombinant ShHTL6; assay type: biochemical
T1 sequence (A0A0M4AUV4 1-271): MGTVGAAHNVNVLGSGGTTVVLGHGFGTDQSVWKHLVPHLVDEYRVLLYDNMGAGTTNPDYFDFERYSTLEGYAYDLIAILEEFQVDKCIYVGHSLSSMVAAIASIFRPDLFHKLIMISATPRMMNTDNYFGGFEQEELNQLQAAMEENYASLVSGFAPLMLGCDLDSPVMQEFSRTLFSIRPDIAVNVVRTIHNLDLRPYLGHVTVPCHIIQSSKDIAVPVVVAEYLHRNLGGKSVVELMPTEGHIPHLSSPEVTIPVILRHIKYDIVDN
Description: (§1) The ORF fragment of ShHTL6 and ShHTL7 was synthesized using IDT gBlock service. The PCR amplified ShHTL6 and ShHTL7 fragment was digested with Nco I and EcoR I, and the digested product was introduced into a modified pET28 vector with an N-terminal His8 tag. Escherichia coli BL21(DE3) was used for protein expression. The overnight culture (12 ml) was added to a fresh LB medium (1.2 L) containing kanamycin (50 mg/L) at 37°C. After OD600 reached 0.8, 0.1 mM IPTG was added and the cell was further incubated at 16°C for 21 h. The culture medium was centrifuged at 3700 g and the pellet was stored at −20°C until use. The pellet was resuspended and sonicated in a lysis buffer (50 mM Tris buffer (pH 8.0) containing 500 mM NaCl, 10 mM 2-mercaptoethanol, and 10% glycerol). The supernatant was purified by Ni Sepharose TM 6 Fast Flow (500 μl, Cytiva). After washing with the washing buffer (50 mM Tris buffer (pH 8.0) containing 500 mM NaCl and 20 mM imidazole), The bound protein was eluted with elution buffer (50 mM Tris buffer (pH 8.0) containing 500 mM NaCl and 200 mM imidazole). The eluate was concentrated using VIVASPIN Turbo 15 (Sartorius), and the concentration was adjusted to 5 mg/ml. The purified protein was aliquoted to the appropriate volume, immediately frozen in liquid nitrogen, and stored at −80°C until use.
(§2) After YLG was incubated with recombinant ShHTL6 or ShHTL7 for 1 h, the fluorescence was measured by spectraMax i5 (Molecular Devices) at excitation by 480 nm and detection by 520 nm. IC50 values were calculated using the online tool Quest GraphTM IC50 Calculator (AAT Bioquest, Inc., United States; https://www.aatbio.com/tools/ ic50-calculator).

[2] = molecular target: T2, ShHTL7 (Striga hermonthica, UniProt A0A0M3PNA2); assay: Hydrolysis assay with recombinant ShHTL7; assay type: biochemical; conditions: 10 μM substrate, 30°C, 60 min
T2 sequence (A0A0M3PNA2 1-271): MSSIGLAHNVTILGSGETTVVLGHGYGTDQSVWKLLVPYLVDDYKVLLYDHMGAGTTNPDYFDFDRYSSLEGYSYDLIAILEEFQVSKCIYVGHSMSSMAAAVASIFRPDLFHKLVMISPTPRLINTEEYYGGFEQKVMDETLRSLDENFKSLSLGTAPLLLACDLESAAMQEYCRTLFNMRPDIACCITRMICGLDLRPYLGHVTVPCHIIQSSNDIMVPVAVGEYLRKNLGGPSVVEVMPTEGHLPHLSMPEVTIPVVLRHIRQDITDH
Description: as §1
Hydrolysis assays were carried out at 30°C for 60 min in 100 μl of a reaction buffer containing 0.13 pmol recombinant ShHTL7 or AtD14, 10 μM of substrate in 50 mM Phosphate-Na buffer (pH 7.0) containing 2% acetone. The enzyme reaction was stopped by addition of 100 μl of acetonitrile containing 1-naphtaleneacetic acid (NAA; 0.5 ng/μl) as an internal standard. After centrifuged at 13,000 rpm for 5 min, each sample was subjected to LC–MS/MS analysis equipped with reverse-phase column (CORTECS UPLC Phenyl 1.6 μm, ϕ2.1 × 75 mm; Waters). The concentration of remaining substrate and reaction product was calculated by using NAA as an internal standard. Detailed information about the analytical condition is described in Supplementary Table 1.

[3] = tested on: Orobanche minor seeds; assay: Germination assay, Orobanche minor seeds; assay type: in vivo; conditions: O. minor seeds
Description: Orobanche minor seeds were washed with 70% EtOH, and then sonicated for 4 min in 1% sodium hypochlorite solution containing 0.2% Tween-20. The seeds were then washed 10 times with sterile water and suspended in 0.1% agar solution. The seeds were loaded onto 5-mm glass fiber filter disks (20–70 seeds/disk) and were conditioned at 23°C for 15 days. Each disk was transferred into a 96-well plate. A 30 μl aliquot of test chemical solution was added to the well. For the germination assay, the chemical solutions were prepared by 1,000 times dilution from each acetone stock solution with water (final acetone concentration was 0.1%). GR24 solution (0.1% acetone) and sterile water (0.1% acetone) was used as positive and negative control, respectively. The 96 well plates were incubated for 5 days at 23°C and the number of total seeds and germinated seeds was counted.

[4] = tested on: Arabidopsis wild type Col-0; assay: Growth promoting assay and root phenotypic analysis; assay type: in vivo; conditions: 1 μM on agar plate
Description: Sterilized seeds of the Arabidopsis wild type Col-0 were put on the plate containing 1% (w/v) agar-solidified 0.5× Murashige and Skoog (MS) medium, 1% sucrose. Test compounds were dissolved in the medium at 1 μM by 10,000 times dilution from each acetone stock (final concentration of acetone was 0.01% (v/v)). To evaluate the growth promoting effect, these seedlings were cultured horizontally at 22°C for 20 days under LED light (105 μmol/m^2/s) with a 16 h light/8 h dark photoperiod. After the cultivation, flesh weight of shoot was measured. For root phenotypic analysis, these seedlings were cultured verticaly at 22°C for 11 days under LED light (105 μmol/m^2/s) with a 16 h light/8 h dark photoperiod. After the cultivation, root length was measured by using ImageJ software and number of lateral roots was counted by using a microscope.

[5] = molecular target: T2, ShHTL7; assay: YLG assay (inhibition of YLG hydrolysis) with recombinant ShHTL7; assay type: biochemical; conditions: 1 h incubation, read-out: IC50 in YLG assay
Description: as §1, §2

SMILES: CC1=CC(OC(=O)/C=C\c2ccccc2)OC1=O (stereo not shown) [c-CASL1]
- IC50 [1]: 0.9 µM
- hydrolysis by HTL7 [2]: can hydrolyze
- germination-inducing activity, times stronger than the corresponding trans isomer [3]: approximately 10 times
- lateral root density ([4]; 11 days): increased
- primary root length ([4]; 11 days): inhibited
- shoot fresh weight ([4]; 20 days): increase
- IC50 [5]: 0.59 µM
